MIC data for five compounds are collected here from DBAASP.

Values after ≈ are worked out from the molar mass of the structure shown.

Among the test systems are Escherichia coli K88; Escherichia coli UB1005; Escherichia coli K99; Bacillus subtilis 168; Escherichia coli 078; Streptococcus agalactiae; Escherichia coli ML-35p.
Holding throughout (assay): ≥ marks a high value that may be exact or a test limit, other limits are often not marked, values filed in µg/mL are converted to µM
Assay [1] relates to Salmonella enterica subsp. enterica serovar Typhimurium ATCC 14028.
In assay [2] the test system is Salmonella enterica subsp. enterica serovar Typhimurium C77-31.
Assay [3] deals with Lacticaseibacillus rhamnosus 1.0385.
The subject of assay [4] is Lactiplantibacillus plantarum 8014.
In assay [5] the test system is Staphylococcus aureus ATCC 43300.
Assay [6] deals with Lacticaseibacillus rhamnosus 1.0936.
Assay [7] relates to Staphylococcus aureus ATCC 29213.
Assay [8] relates to Escherichia coli ATCC 25922.
Assay [9] concerns Lacticaseibacillus rhamnosus 7469.
Assay [10] has as its system Staphylococcus aureus ATCC 25923.
In assay [11] the test system is Lacticaseibacillus rhamnosus 1.0911.
Assay [12] relates to Salmonella enterica subsp. enterica serovar Pullorum C79-13.
In assay [13] the test system is Pseudomonas aeruginosa ATCC 27853.
Assay [14] relates to Staphylococcus epidermidis ATCC 12228.
In assay [15] the test system is Cryptococcus gattii ATCC 32608.
Assay [16] concerns Staphylococcus aureus ATCC 33591.
Assay [17] concerns Candida krusei ATCC 20029.
Assay [18] relates to Acinetobacter baumannii ATCC 19606.
Assay [19] relates to Cryptococcus neoformans ATCC 24067.
Assay [20] has as its system Pseudomonas aeruginosa PAO1.
Assay [21] deals with Haemophilus influenzae ATCC 49247.
Assay [22] deals with Escherichia coli DH5alpha.
For assay [23], the system named is Bacillus anthracis Sterne 34F2.
For assay [24], the system named is Mycobacterium tuberculosis H37Ra.
Assay [25] relates to Staphylococcus aureus USA 300.
Assay [26] deals with Staphylococcus aureus NRS 72.
For assay [27], the system named is Klebsiella pneumoniae NCTC 9633.
Assay [28] concerns Salmonella enterica subsp. enterica serovar Pullorum ATCC 7913.
Assay [29] concerns Streptococcus agalactiae CICC 10465.
Assay [30] deals with Streptococcus thermophilus YM-C.
Assay [31] relates to Staphylococcus aureus 1399/17.
Assay [32] deals with Pseudomonas aeruginosa 522/17.
In assay [33] the test system is Klebsiella pneumoniae ESBL 344/17.
For assay [34], the system named is Acinetobacter baumannii 7226/16.
For assay [35], the system named is Staphylococcus aureus SG511.
Assay [36] deals with Escherichia coli ESBL 521/17.

As to `CC(C)C[C@H](NC(=O)[C@H](CC(C)C)NC(=O)[C@H](Cc1c[nH]c2ccccc12)NC(=O)[C@H](Cc1c[nH]c2ccccc12)NC(=O)[C@H](Cc1c[nH]c2ccccc12)NC(=O)[C@H](CCCN=C(N)N)NC(=O)[C@H](CS)NC(=O)[C@H](Cc1ccccc1)NC(=O)[C@H](Cc1ccc(O)cc1)NC(=O)[C@H](CO)NC(=O)[C@H](C)NC(=O)[C@@H](N)CS)C(N)=O` [CASYFCRWWWLL], the MIC is greater than 64 µM in [1]; no less than 64 µM in assay [2]; no less than 64 µM in assay [3]; no less than 64 µM in assay [4]; no less than 64 µM in the assay with Escherichia coli K88; greater than 64 µM in assay [5]. Besides, the MIC with Escherichia coli UB1005 is no less than 64 µM; in assay [6], no less than 64 µM; in [7], greater than 64 µM; in [8], greater than 64 µM; in [9] it was no less than 64 µM; in [10], greater than 64 µM. The MIC is no less than 64 µM in assay [11], no less than 64 µM with Escherichia coli K99, no less than 64 µM in assay [12] and greater than 64 µM in assay [13].
For the compound `CC[C@H](C)[C@H](NC(C)=O)C(=O)N[C@@H](Cc1c[nH]c2ccccc12)C(=O)N[C@@H](CC(C)C)C(=O)N[C@H](C(=O)N[C@@H](CCCCN)C(=O)N[C@@H](C)C(=O)N[C@@H](CC(C)C)C(=O)N[C@@H](CCCCN)C(=O)N[C@@H](Cc1ccccc1)C(=O)N[C@@H](CC(C)C)C(=O)NCC(=O)N[C@@H](CCCCN)C(=O)N[C@@H](CC(N)=O)C(=O)N[C@@H](CC(C)C)C(=O)NCC(=O)N[C@@H](CCCCN)C(N)=O)[C@@H](C)O` [IWLTKALKFLGKNLGK], the MIC worked out at 2.13 µM (≈ 3.99 µg/mL) in assay [14]; 3.38 µM (≈ 6.33 µg/mL) in [15]; 4.27 µM (≈ 7.99 µg/mL) in assay [16]; 30.5 µM (≈ 57 µg/mL) in [17]; 3.01 µM (≈ 5.63 µg/mL) in assay [8]; 2.68 µM (≈ 5.02 µg/mL) in [18]. The MIC in assay [19] is 8.55 µM (≈ 16 µg/mL); in [13], 24.2 µM (≈ 45.2 µg/mL).
Turning to `CC(C)[C@H](NC(=O)[C@H](Cc1c[nH]c2ccccc12)NC(=O)[C@H](Cc1cnc[nH]1)NC(=O)[C@H](CCCN=C(N)N)NC(=O)[C@H](CCCN=C(N)N)NC(=O)[C@H](Cc1c[nH]c2ccccc12)NC(=O)[C@H](Cc1c[nH]c2ccccc12)NC(=O)[C@H](Cc1cnc[nH]1)NC(=O)[C@H](Cc1c[nH]c2ccccc12)NC(=O)[C@H](CCCN=C(N)N)NC(=O)[C@@H](N)CCCCN)C(=O)N[C@H](C(=O)N[C@@H](Cc1c[nH]c2ccccc12)C(N)=O)C(C)C` [KRWHWWRRHWVVW], the MIC in assay [20] is 50 µM (≈ 101 µg/mL); in [21], no less than 80 µM; in assay [22], 25 µM (≈ 50.4 µg/mL); in assay [23] it was no less than 80 µM; with Bacillus subtilis 168 it was 0.2 µM (≈ 0.403 µg/mL); in assay [24] it was 2.5 µM (≈ 5.04 µg/mL). Also, the MIC in assay [25] was no less than 80 µM; in assay [26] it was no less than 80 µM; in [18], 50 µM (≈ 101 µg/mL); in assay [27], no less than 80 µM.
For the compound `CC[C@H](C)[C@H](NC(=O)CNC(=O)[C@@H](NC(=O)[C@@H](N)CC(C)C)[C@@H](C)CC)C(=O)N[C@H](C(=O)N[C@@H](CC(=O)O)C(=O)NCC(=O)N[C@H](C(=O)N[C@@H](CCCCN)C(=O)N[C@@H](CCC(=O)O)C(=O)N[C@@H](CCCN=C(N)N)C(=O)N[C@@H](CCCCN)C(=O)N[C@@H](CCCCN)C(=O)N[C@@H](CCCN=C(N)N)C(=O)N[C@@H](CCCN=C(N)N)C(=O)N[C@@H](CCCN=C(N)N)C(N)=O)C(C)C)[C@@H](C)CC` [LIGIIDGVKERKKRRR], the MIC in [1] was greater than 64 µM; in assay [14], greater than 64 µM; in assay [2], no less than 64 µM; against Escherichia coli 078 it was no less than 64 µM; in [28] it was no less than 64 µM; in assay [29] it was no less than 64 µM. The MIC against Escherichia coli UB1005 is no less than 64 µM; in assay [7], greater than 64 µM; in the assay with Streptococcus agalactiae it was no less than 64 µM; in [8] it was greater than 64 µM; in [9], no less than 64 µM; in assay [30] it was no less than 64 µM. Besides, the MIC in assay [10] and in assay [13] was greater than 64 µM in each case.
On to `CC[C@H](C)[C@H](NC(=O)[C@@H]1CCCN1C(=O)[C@@H]1CCCN1C(=O)[C@H](CCCN=C(N)N)NC(=O)[C@H](CCCN=C(N)N)NC(=O)[C@H](Cc1ccccc1)NC(=O)[C@@H]1CCCN1C(=O)[C@H](CC(C)C)NC(=O)[C@H](CCCN=C(N)N)NC(=O)[C@H](Cc1ccccc1)NC(=O)[C@@H](N)CCCN=C(N)N)C(=O)N[C@@H](CCCN=C(N)N)C(=O)N[C@H](C(=O)N1CCC[C@H]1C(=O)N1CCC[C@H]1C(=O)N1CCC[C@H]1C(=O)N[C@@H](Cc1ccccc1)C(=O)N[C@@H](Cc1ccc(O)cc1)C(=O)N1CCC[C@H]1C(=O)N1CCC[C@H]1C(=O)N[C@@H](Cc1ccccc1)C(=O)N[C@@H](CCCN=C(N)N)C(=O)N[C@@H](CCCN=C(N)N)C(=O)N[C@@H](Cc1ccccc1)C(=O)N[C@@H](CC(C)C)C(N)=O)[C@@H](C)CC` [RFRLPFRRPPIRIPPPFYPPFRRFL], for which the MIC turned out to be 4 µM (≈ 13 µg/mL) against Escherichia coli ML-35p; 4 µM (≈ 13 µg/mL) in assay [31]; 11.3 µM (≈ 36.6 µg/mL) in [32]; 2 µM (≈ 6.48 µg/mL) in assay [33]; 8 µM (≈ 25.9 µg/mL) in assay [34]; 16 µM (≈ 51.8 µg/mL) in assay [16]. Further, the MIC in [35] amounted to 0.5 µM (≈ 1.62 µg/mL); in assay [36] it was 2 µM (≈ 6.48 µg/mL).
